Assay [1] deals with Mus musculus. Briefly: Antihyperlipidemic activity in Triton WR-1339-induced hyperlipidemic mouse model assessed as decrease in serum triglyceride level at 13 mg/kg, po for 7 days and co-treated with Triton WR-1339 on day 6. It is filed as functional, organism-based.
In assay [2] the test system is Mus musculus. Briefly: Antihyperlipidemic activity in Triton WR-1339-induced hyperlipidemic mouse model assessed as decrease in serum MDA level at 13 mg/kg, po for 7 days and co-treated with Triton WR-1339 on day 6. The assay is classed as functional, organism-based.
Assay [3] has as its system Mus musculus. Briefly: Antihyperlipidemic activity in Triton WR-1339-induced hyperlipidemic mouse model assessed as decrease in total cholesterol level at 13 mg/kg, po for 7 days and co-treated with Triton WR-1339 on day 6. It is filed as functional, organism-based.
The subject of assay [4] is Mus musculus. Briefly: Hepatoprotective activity in high fat diet-induced hyperlipidemic mouse model assessed as inhibition of lipid accumulation at 13 mg/kg, po administered for last 30 days during 60 days of high fat diet feeding by oil-red O staining-based microscopic analysis. The assay is classed as functional, organism-based.
The subject of assay [5] is Mus musculus. Kind of assay: In vivo anti-inflammatory activity in high fat diet-induced hyperlipidemic mouse model assessed as reduction in TNF-alpha level at 13 mg/kg, po administered for last 30 days during 60 days of high fat diet feeding relative to control. It is filed as functional.
Assay [6] is filed under the species Mus musculus. Briefly: animal or person. It is filed as functional. The conditions noted are these: po.
Description: Antihyperlipidemic activity in high fat diet-induced hyperlipidemic mouse model assessed as reduction in atherosclerosis index at 13 mg/kg, po administered for last 30 days during 60 days of high fat diet feeding relative to control
Assay [7] relates to Mus musculus. Kind of assay: Antihyperlipidemic activity in high fat diet-induced hyperlipidemic mouse model assessed as reduction in serum triglyceride level at 13 mg/kg, po administered for last 30 days during 60 days of high fat diet feeding relative to control. The assay is classed as functional.
Assay [8] deals with Mus musculus. Briefly: Antioxidant activity in high fat diet-induced hyperlipidemic mouse model assessed as reduction in MDA level at 13 mg/kg, po administered for last 30 days during 60 days of high fat diet feeding relative to control. It is filed as functional.
Assay [9] concerns Mus musculus. Briefly: Hepatoprotective activity in high fat diet-induced hyperlipidemic mouse model assessed as decrease in inflammatory cell infiltration at 13 mg/kg, po administered for last 30 days during 60 days of high fat diet feeding by H and E staining-based microscopic analysis. It is filed as functional, organism-based.
For assay [10], the system named is Mus musculus. Briefly: Antihyperlipidemic activity in high fat diet-induced hyperlipidemic mouse model assessed as LDL level at 13 mg/kg, po administered for last 30 days during 60 days of high fat diet feeding relative to control. It is filed as functional.
Assay [11] deals with Mus musculus. Kind of assay: Antioxidant activity in high fat diet-induced hyperlipidemic mouse model assessed as increase in SOD level at 13 mg/kg, po administered for last 30 days during 60 days of high fat diet feeding relative to control. It is filed as functional.
For assay [12], the system named is Mus musculus. Briefly: Hepatoprotective activity in high fat diet-induced hyperlipidemic mouse model assessed as reduction in AST level at 13 mg/kg, po administered for last 30 days during 60 days of high fat diet feeding relative to control. It is filed as functional.
In assay [13] the test system is Mus musculus. Briefly: In vivo anti-inflammatory activity in high fat diet-induced hyperlipidemic mouse model assessed as reduction in IL-6 level at 13 mg/kg, po administered for last 30 days during 60 days of high fat diet feeding relative to control. It is filed as functional.
For assay [14], the system named is Mus musculus. Briefly: Antioxidant activity in high fat diet-induced hyperlipidemic mouse model assessed as increase in GSH-PX level at 13 mg/kg, po administered for last 30 days during 60 days of high fat diet feeding relative to control. The assay is classed as functional.
Assay [15] concerns Mus musculus. Briefly: Antihyperlipidemic activity in high fat diet-induced hyperlipidemic mouse model assessed as increase in HDL level at 13 mg/kg, po administered for last 30 days during 60 days of high fat diet feeding relative to control. The assay is classed as functional.
Assay [16] relates to Mus musculus. Briefly: Hepatoprotective activity in high fat diet-induced hyperlipidemic mouse model assessed as decrease in tissue hemorrhage at 13 mg/kg, po administered for last 30 days during 60 days of high fat diet feeding by H and E staining-based microscopic analysis. The assay is classed as functional, organism-based.
The subject of assay [17] is Mus musculus. Kind of assay: Hepatoprotective activity in high fat diet-induced hyperlipidemic mouse model assessed as reduction in ALT level at 13 mg/kg, po administered for last 30 days during 60 days of high fat diet feeding relative to control. The assay is classed as functional.
Assay [18] deals with Mus musculus. Briefly: Antihyperlipidemic activity in high fat diet-induced hyperlipidemic mouse model assessed as reduction in total cholesterol level at 13 mg/kg, po administered for last 30 days during 60 days of high fat diet feeding relative to control. It is filed as functional.

Active and inactive are the calls of the source. The calls are words filed in the database; no cut-off is given here.

As for `CCOC(=O)CCCCOc1ccc(-c2cc(=S)ss2)cc1`, the outcome in the assay on Mus musculus [1], in the assay on Mus musculus [2] and in the assay with Mus musculus [3] was Active.
For the compound `CCOC(=O)CCCCCCOc1ccc(-c2cc(=S)ss2)cc1`, the result in the assay on Mus musculus [1], in the assay on Mus musculus [2] and with Mus musculus [3] was Active.
For `COc1ccc(-c2cc(=S)ss2)cc1`, the outcome in the assay on Mus musculus [1] and with Mus musculus [3] was inactive.
As a reminder, the inhibition in vivo is how much of the control response was suppressed. As to `CCOC(=O)CCCCCOc1ccc(-c2cc(=S)ss2)cc1`, the outcome in the assay with Mus musculus [4], with Mus musculus [1], in the assay on Mus musculus [9], in the assay on Mus musculus [2], in the assay on Mus musculus [16] and in the assay on Mus musculus [3] was Active. Besides, the inhibition in vivo at 13 mg/kg in the assay on Mus musculus [5] was 31.8%; in the assay filed under Mus musculus [6], 40.1%; in the assay with Mus musculus [7] it was 29.4%; with Mus musculus [8], 10.1%; in the assay with Mus musculus [10] it was 30.7%; in the assay with Mus musculus [12], 31.5 to 39%. Further, the inhibition in vivo at 13 mg/kg is 18.4% in the assay with Mus musculus [13], 8.2% with Mus musculus [17] and 12.5% in the assay with Mus musculus [18]. The values for the Activity in the assay on Mus musculus [11], with Mus musculus [14] and with Mus musculus [15] were 10.8%, 19.2% and 21.4%, respectively.
As for `CCOC(=O)COc1ccc(-c2cc(=S)ss2)cc1`, the result with Mus musculus [1] and in the assay with Mus musculus [2] was Active.
Regarding `CCOC(=O)C(CC)Oc1ccc(-c2cc(=S)ss2)cc1` (stereo not given), the outcome with Mus musculus [1] and in the assay with Mus musculus [2] was Active.
As to `CCOC(=O)C(C)Oc1ccc(-c2cc(=S)ss2)cc1` (stereo not given), the result in the assay with Mus musculus [1] and in the assay on Mus musculus [2] was Active.
For `CCOC(=O)C(C)(C)Oc1ccc(-c2cc(=S)ss2)cc1`, the outcome in the assay with Mus musculus [1] and in the assay with Mus musculus [2] was Active.
With `CC(C)OC(=O)C(C)(C)Oc1ccc(C(=O)c2ccc(Cl)cc2)cc1` [FENOFIBRATE], the outcome in the assay on Mus musculus [1] and in the assay with Mus musculus [2] was Active. Also, the Activity with Mus musculus [11] was 10.9%; in the assay on Mus musculus [14], 9.9%; in the assay with Mus musculus [15], 19.4%. The result with Mus musculus [3] was inactive.

The record behind these values is ChEMBL document CHEMBL4325841, “5-(4-Hydroxyphenyl)-3H-1,2-dithiole-3-thione-based fibrates as potential hypolipidemic and hepatoprotective agents” (2018).
